# Experimental data published in patent publication US11952356B2, “Crystalline form of 1,4-bis[1,2-benzisoselenazol-3(2H)-one]-butane, method for preparing same and use thereof” (SHANGHAI YUANXI MEDICINE CORP., priority 2019, dated 2024).
# Read-outs that look alike come from different tables or passages of the source.
# Assays:
# H22 cells = experiment: Tumor inhibitory activity assay in H22 mice; type: in vivo, mouse; settings: 180 mg/kg once daily oral gavage; for Tumor growth inhibition: n=10
# Experimental: After 2 days of acclimation, qualified animals were randomized into 4 groups with 10 animals each. On day 0, H22 cells were grafted at 1×10^4/mouse subcutaneously at the right axilla. The treatment started at 24 h after grafting. Long and short diameters of tumor were recorded daily and the tumor size was calculated according to the formula: long diameter×short diameter^2×0.5236. The body weight was measured every 2 days. After 21 days of treatment, blood was collected from eyeballs after chloral hydrate anesthesia. The mice were sacrificed and tumors were collected quickly.
# [1] = Stability test of crystalline form I (XRD after storage); type: physicochemical; settings: 40° C./75% relative humidity and 60° C., 3 to 7 days
# [2] = test system: hepatic fibrosis animal model; experiment: CCl4-induced hepatic fibrosis animal model; type: in vivo, Balb/c mice; settings: for average body weight / ALB (serum) / ALP (serum) / ALT (serum) / AST (serum) / TGF (serum) / TP (serum) / TrxR1 (serum): end of study; for ALB (serum) / ALP (serum) / ALT (serum) / AST (serum) / TGF (serum) / TP (serum) / TrxR1 (serum): model group = 1.00
# Experimental: Animals: Balb/c inbred mice, male, six weeks old, purchased from Peking University, Health Science Center, Department of Laboratory Animal Science, with license number SCXK(Jing)2016-0010. The breeding environment was clean. The accommodation temperature was 25±2° C. The mice were bred in 12-hour light/darkness cycle, and had sufficient food and water supply.
# After being prepared into a solution or suspension, the compound was administered to the mice at a dose of 5 mL/Kg.
# 20 male Balb/c mice aged 6 weeks were randomized into 4 groups. After a staged gradient induction using 25% CCl4 for 4 weeks (three times a week), the treatment started in the BSL (90 mg/kg) group and the BSM (180 mg/kg) group once a day, and the control group and model group were administered with 5‰ CMC-Na solution. After 8 weeks of induction, the mice were sacrificed and the blood was collected and centrifuged at 3000 rpm for 15 min to give the serum for detecting TGF-β1, TrxR1, AST, ALT, ALP, TP and the expression (hepatic fibrosis animal model is shown in FIG. 6). Part of liver was fixed with 4% paraformaldehyde, and subjected to immunohistochemical HE staining and Masson staining. Expressions of α-SMA and Collagen I in liver tissue were detected immunohistochemically. Part of liver was preserved in liquid nitrogen.
# HBV [3] = experiment: HBV DNA assay in HepAD38 culture supernatant; type: cell-based; settings: for Supernatant HBV DVA level: HepAD38 cells
# Experimental: (§1) Cell plating: HepAD38 cells were seeded in 24-well plates at a density of 8×10^4 cells/well, each well containing 500 μL of culture medium. Treatment: 9 h after plating, the cells were observed. […] The cells were cultured for 48 h, washed with PBS twice, added with the above drugs, and cultured for another 48 h. After the 48 h, the supernatant was collected, and HBV DNA, HBsAg, and HBeAg in the supernatant were detected. HBV DNA was preferentially determined.
# HBV DNA assay in culture supernatant: According to TransGen's Viral Nucleic Acid Extraction kit, the nucleic acid was extracted and by SYBR green qPCR, the viral DNA load was determined.
# (§2) Procedures for determining HBV DNA, HBV RNA, HBsAg and HBeAg in cell culture supernatant are as follows:
# (§3) The cells were transferred to a larger culture dish, and cultured in a culture medium for 3 days. 1 mL of cell supernatant was collected for detecting HBV DNA and HBV RNA. If the detection was not timely performed, the samples were stored at −20° C.
# (§4) 1 mL of collected cell culture supernatant and the last PBS washings collected at 48 h were centrifuged at 5000 rpm for 5 min. 200 μL of the supernatant after centrifugation was added to 5 μL of DNaseI+5 μL of DNasel buffer, well mixed and subjected to instantaneous centrifugation. The supernatant was incubated for 1 h at 37° C., mixed once every 30 min, and subjected to instantaneous centrifugation. After 1 h, 5 μL of EDTA was added and the system was incubated at 65° C. for 10 min before the DNaseI reaction was terminated.
# (§5) 200 μL of HBV nucleic acid in cell supernatant was concentrated into a system of 20 μL by using a TransGene's HBV nucleic acid extraction kit.
# (§6) The supernatant HBV DNA level and the baseline level of plasmid in PBS after DNase treatment were measured by real-time PCR. After reverse transcription of HBV RNA into cDNA, real time PCR was performed to detect the level.
# HBV [4] = experiment: HBV RNA assay in cell culture supernatant; type: cell-based
# Experimental: as §1, §2, §3, §4, §5, §6
# (2) cDNA quantitative system after reverse transcription of HBV RNA: […]
# [5] = Grinding test, crystalline form by XRD; type: physicochemical
# HBV [6] = experiment: HBeAg assay in culture supernatant; type: cell-based
# Experimental: as §1
# HBsAg and HBeAg assays in culture supernatant: The assay was time-resolved immunofluorescence (ELISA) according to HBsAg and HBeAg assay kits of PE Corporation.
# After 48 h, 1 mL of cell culture supernatant was collected for detecting HBsAg and HBeAg. The cells were washed at least 5 times with PBS. 1 mL of the last PBS washings was collected and used as the baseline for determining whether the plasmids were washed away. Note: when washing the cells, PBS was slowly added into the dish along the wall of the dish without resuspending the cells. The dish was then gently shaken to wash the cells, and the residual PBS was discarded after each washing to minimize the plasmid residues.
# [7] = BSL and BSM groups vs model group
smiles,measurement,setting,value
"O=c1c2ccccc2[se]n1CCCCn1[se]c2ccccc2c1=O [Crystalline form I, 1,4-BIS[1,2-BENZISOSELENAZOL-3(2H)-one]-butane]",Mean tumor weight,H22 cells; after 21 days of treatment,138.33 mg
same,Tumor growth inhibition (tumor weight),H22 cells; after 21 days of treatment,88.70%
same,Tumor growth inhibition (tumor weight),"H22 cells; after 21 days of treatment, listed as crystalline form I",up to 88.7%
same,Tumor growth inhibition,"H22 cells; day 9, tumor size",70.42%
same,Tumor growth inhibition,"H22 cells; day 10, tumor size",78.32%
same,Tumor growth inhibition,"H22 cells; day 11, tumor size",76.31%
same,Tumor growth inhibition,"H22 cells; day 12, tumor size",78.27%
same,Tumor growth inhibition,"H22 cells; day 13, tumor size",76.03%
same,Tumor growth inhibition,"H22 cells; day 14, tumor size",72.24%
same,Tumor growth inhibition,"H22 cells; day 15, tumor size",65.74%
same,Tumor growth inhibition,"H22 cells; day 16, tumor size",76.97%
same,Tumor growth inhibition,"H22 cells; day 17, tumor size",78.21%
same,Tumor growth inhibition,"H22 cells; day 18, tumor size",82.33%
same,Tumor growth inhibition,"H22 cells; day 19, tumor size",87.15%
same,Tumor growth inhibition,"H22 cells; day 20, tumor size",88.49%
same,Tumor growth inhibition,"H22 cells; day 21, tumor size",86.67%
same,XRD pattern after storage,[1],unchanged
same,average body weight,"[2]; BSL 90 mg/kg once a day, n ≥ 4",17 g
same,average body weight,[2]; BSL 90 mg/kg,17.00 ± 0.68 g
same,ALB (serum),[2]; BSL 90 mg/kg,1.83
same,ALP (serum),[2]; BSL 90 mg/kg,0.82
same,ALT (serum),[2]; BSL 90 mg/kg,0.48
same,AST (serum),[2]; BSL 90 mg/kg,0.29
same,TGF (serum),[2]; BSL 90 mg/kg,0.76
same,TP (serum),[2]; BSL 90 mg/kg,1.35
same,TrxR1 (serum),[2]; BSL 90 mg/kg,0.82
same,Collagen1 expression in liver (staining),[2]; [7],significantly reduced
same,HE staining: symptoms of hepatocyte necrosis and inflammation,[2]; [7],significantly reduced
same,Masson staining: fibrosis symptoms,[2]; [7],gradually relieved
same,α-SMA expression in liver (staining),[2]; [7],significantly reduced
same,average body weight,"[2]; BSM 180 mg/kg once a day, n ≥ 4",18 g
same,average body weight,[2]; BSM 180 mg/kg,18.04 ± 2.23 g
same,ALB (serum),[2]; BSM 180 mg/kg,1.47
same,ALP (serum),[2]; BSM 180 mg/kg,0.73
same,ALT (serum),[2]; BSM 180 mg/kg,0.39
same,AST (serum),[2]; BSM 180 mg/kg,0.27
same,TGF (serum),[2]; BSM 180 mg/kg,0.85
same,TP (serum),[2]; BSM 180 mg/kg,1.36
same,TrxR1 (serum),[2]; BSM 180 mg/kg,0.89
same,"Liver surface symptoms (roughness, granular sensation)","[2]; treatment groups (BSL 90 mg/kg, BSM 180 mg/kg) vs model group",improved
same,Supernatant HBV DVA level,HBV [3]; 0.5 μM,62%
same,Supernatant HBV DVA level,HBV [3]; 1.0 μM,63%
same,Supernatant HBV DVA level,HBV [3]; 5.0 μM,70%
same,Inhibition effect on HBV DNA,HBV [3]; summary in words,good inhibition effect
same,Supernatant HBV RNA level,HBV [4]; 0.5 μM,48%
same,Supernatant HBV RNA level,HBV [4]; 1.0 μM,42%
same,Supernatant HBV RNA level,HBV [4]; 5.0 μM,43%
same,Crystalline form after grinding (XRD),[5]; listed as Example 1,Crystalline form I
same,Supernatant HBeAg level,HBV [6]; 0.5 μM,22%
same,Supernatant HBeAg level,HBV [6]; 1.0 μM,17%
same,Supernatant HBeAg level,HBV [6]; 5.0 μM,43.1%^
same,Inhibition effect on supernatant HBeAg,HBV [6]; summary in words,good inhibition effect
"O=c1c2ccccc2[se]n1CCCCn1[se]c2ccccc2c1=O [Crystalline form I-a, 1,4-BIS[1,2-BENZISOSELENAZOL-3(2H)-one]-butane]",Crystalline form after grinding (XRD),[5],crystalline form I
same,Crystalline form after grinding (XRD),[5]; listed as Comparative Example 1,Crystalline form I
same,Crystalline form after grinding (XRD),[5]; listed as Comparative Example 2,Crystalline form I
same,Crystalline form after grinding (XRD),[5]; listed as Comparative Example 3,Crystalline form I
"C=C1[C@H](CO)[C@@H](O)C[C@@H]1n1cnc2c(=O)[nH]c(N)nc21 [ETV, entecavir, reference compound]",Supernatant HBV DVA level,HBV [3]; ETV concentration not given,80%
same,Supernatant HBeAg level,HBV [6]; ETV concentration not given,36.8%
